Data: PubChem BioAssay (NCI)
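Tested at 5 concentrations; 48 h exposure; 96-well plates; endpoints linearly interpolated, else capped at highest concentration. Definition used: TGI = concentration required for complete inhibition of growth.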

Key:
Assay in all cases: NCI tumour cell line growth inhibition, 48 h
[1] = test system: M14 melanoma
[2] = test system: NCI-H460 lung
[3] = test system: MDA-N
[4] = test system: TK-10 renal
[5] = test system: DU-145 prostate
[6] = test system: A549 NSCLC
[7] = test system: SW-620 colon
[8] = test system: NCI-H23 lung
[9] = test system: RPMI-8226 leukemia
[10] = test system: MCF7 breast
[11] = test system: HCT-116 colon
[12] = test system: SN12C renal
[13] = test system: SF-295 CNS
[14] = test system: UACC-62 melanoma
[15] = test system: NCI/ADR-RES ovarian
[16] = test system: HT29 colon
[17] = test system: OVCAR-5 ovarian
[18] = test system: K-562 leukemia
[19] = test system: HCT-15 colon
[20] = test system: KM12 colon
[21] = test system: SF-539 CNS
[22] = test system: HOP-92 NSCLC
[23] = test system: IGROV1 ovarian
[24] = test system: CAKI-1 renal
[25] = test system: PC-3 prostate
[26] = test system: SNB-19 CNS
[27] = test system: NCI-H226 lung
[28] = test system: EKVX NSCLC
[29] = test system: COLO 205 colon
[30] = test system: SK-MEL-2 melanoma
[31] = test system: SK-MEL-5 melanoma
[32] = test system: UACC-257 melanoma
[33] = test system: SK-MEL-28 melanoma
[34] = test system: A498 renal
[35] = test system: ACHN renal
[36] = test system: MDA-MB-231 breast
[37] = test system: MOLT-4 leukemia
[38] = test system: U251 CNS
[39] = test system: T-47D breast
[40] = test system: SNB-75 CNS
[41] = test system: SF-268 CNS
[42] = test system: HOP-62 NSCLC
[43] = test system: BT-549 breast
[44] = test system: RXF 393 renal
[45] = test system: OVCAR-3 ovarian
[46] = test system: OVCAR-8 ovarian
[47] = test system: UO-31 renal
[48] = test system: SK-OV-3 ovarian
[49] = test system: 786-0 renal
[50] = test system: OVCAR-4 ovarian
[51] = test system: LOX IMVI melanoma
[52] = test system: HL-60(TB) leukemia
[53] = test system: MDA-MB-435
[54] = test system: MALME-3M melanoma
[55] = test system: CCRF-CEM leukemia
[56] = test system: NCI-H522 lung
[57] = test system: HCC-2998 colon
[58] = test system: SR leukemia

Compound: N#Cc1c(Cl)cccc1Oc1ccc(S(=O)(=O)/N=C(\NN)Nc2ccc(Cl)cc2)cc1
- TGI [1]: 52.1 µM
- TGI [2]: 43.7 µM
- TGI [3]: 66.4 µM
- TGI [4]: 79.6 µM
- TGI [5]: 86.9 µM
- TGI [6]: > 100 µM
- TGI [7]: > 100 µM
- TGI [8]: 65.6 µM
- TGI [9]: 59.3 µM
- TGI [10]: > 100 µM
- TGI [11]: 37.8 µM
- TGI [12]: 64 µM
- TGI [13]: 70.3 µM
- TGI [14]: 38.8 µM
- TGI [15]: > 100 µM
- TGI [16]: 96.2 µM
- TGI [17]: 94.5 µM
- TGI [18]: > 100 µM
- TGI [19]: > 100 µM
- TGI [20]: 42.7 µM
- TGI [21]: 36.6 µM
- TGI [22]: 54 µM
- TGI [23]: 43.4 µM
- TGI [24]: > 100 µM
- TGI [25]: 80.8 µM
- TGI [26]: > 100 µM
- TGI [27]: 60.9 µM
- TGI [28]: 68.3 µM
- TGI [29]: 29.6 µM
- TGI [30]: 46.5 µM
- TGI [31]: 31.3 µM
- TGI [32]: 72.3 µM
- TGI [33]: > 100 µM
- TGI [34]: > 100 µM
- TGI [35]: > 100 µM
- TGI [36]: 67.2 µM
- TGI [37]: 34.4 µM
- TGI [38]: > 100 µM
- TGI [39]: 48.1 µM
- TGI [40]: 54.7 µM
- TGI [41]: 48.9 µM
- TGI [42]: 59.6 µM
- TGI [43]: 67.8 µM
- TGI [44]: 47.1 µM
- TGI [45]: 40.2 µM
- TGI [46]: > 100 µM
- TGI [47]: 91.5 µM
- TGI [48]: > 100 µM
- TGI [49]: 61.1 µM
- TGI [50]: 71 µM
- TGI [51]: 31.4 µM
- TGI [52]: 47.7 µM

Compound: COc1ccc2nc3ccc(OC)cc3c(SCc3ccc([N+](=O)[O-])cc3)c2c1
- TGI [1]: > 100 µM
- TGI [2]: > 100 µM
- TGI [3]: > 100 µM
- TGI [4]: > 100 µM
- TGI [5]: > 100 µM
- TGI [6]: > 100 µM
- TGI [7]: > 100 µM
- TGI [8]: > 100 µM
- TGI [11]: > 100 µM
- TGI [53]: > 100 µM
- TGI [12]: > 100 µM
- TGI [13]: > 100 µM
- TGI [14]: > 100 µM
- TGI [15]: > 100 µM
- TGI [16]: > 100 µM
- TGI [54]: > 100 µM
- TGI [17]: > 100 µM
- TGI [18]: > 100 µM
- TGI [55]: > 100 µM
- TGI [19]: > 100 µM
- TGI [20]: > 100 µM
- TGI [21]: > 100 µM
- TGI [22]: > 100 µM
- TGI [23]: > 100 µM
- TGI [24]: > 100 µM
- TGI [25]: > 100 µM
- TGI [26]: > 100 µM
- TGI [27]: > 100 µM
- TGI [28]: > 100 µM
- TGI [29]: > 100 µM
- TGI [56]: > 100 µM
- TGI [30]: > 100 µM
- TGI [57]: > 100 µM
- TGI [32]: > 100 µM
- TGI [33]: > 100 µM
- TGI [34]: > 100 µM
- TGI [35]: > 100 µM
- TGI [36]: > 100 µM
- TGI [37]: > 100 µM
- TGI [39]: > 100 µM
- TGI [40]: > 100 µM
- TGI [41]: > 100 µM
- TGI [42]: > 100 µM
- TGI [58]: > 100 µM
- TGI [44]: > 100 µM
- TGI [45]: > 100 µM
- TGI [46]: > 100 µM
- TGI [47]: > 100 µM
- TGI [48]: > 100 µM
- TGI [49]: > 100 µM
- TGI [50]: 69.6 µM
- TGI [51]: > 100 µM
- TGI [52]: > 100 µM
